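Growth conditions: 96-well plates. Treatment: test compound, 48 hours, 5 concentrations. Analysis: linear interpolation between bracketing concentrations; unreached endpoints set to highest concentration. Here, GI50 denotes the concentration required for 50% inhibition of growth.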 Calls of active or inactive are those of the source. Cut-off read from the data, not from the text of the source: active = GI50 up to about 1.1 µM and inactive = higher. Where only a bound is given, the exact number is not on record here.

We go through eleven compounds from ChEMBL document CHEMBL1201862, “PubChem BioAssay data set” (2004).

Common to all, as to assay: NCI anticancer screen, dose series, 48 h
Assay [1] deals with HCC 2998.
In assay [2] the test system is OVCAR-5.
Assay [3] deals with PC-3.
For assay [4], the system named is SK-OV-3.
Assay [5] deals with NCI-H460.
The subject of assay [6] is SK-MEL-2.
The test system of assay [7] is SK-MEL-28.
Assay [8] has as its system MCF7.
The test system of assay [9] is CCRF-CEM.
Assay [10] concerns DU-145.
In assay [11] the test system is UACC-62.
For assay [12], the system named is SN12C.
Assay [13] relates to U-251.
Assay [14] deals with MDA-MB-231.
The subject of assay [15] is M14.
Assay [16] relates to SNB-19.
Assay [17] has as its system RXF 393.
Assay [18] concerns K562.
The subject of assay [19] is HL-60.

In the case of `Cc1ccc(N/C(SCc2ccccc2)=C(\C(Cl)=C(Cl)Cl)[N+](=O)[O-])c(C)c1`, the GI50 in assay [1] is 45.6 µM (inactive); in assay [2], 19.6 µM (inactive); in assay [3], 37.2 µM (inactive); in assay [4], 39.8 µM (inactive); in [5] it was 41.7 µM (inactive); in [6] it was 39.6 µM (inactive). Moreover, the GI50 in assay [7] is 23.8 µM (inactive); in assay [8] it was 35.3 µM (inactive); in [9], 31 µM (inactive); in assay [10] it was 6.31 µM (inactive); in assay [11], 23.6 µM (inactive); in [12] it was 20.4 µM (inactive). The GI50 in assay [13] was 15.6 µM (inactive); in assay [14], 14.6 µM (inactive); in assay [15] it was 16.9 µM (inactive); in [16] it was 30.4 µM (inactive).

With `O=S(=O)(c1ccc(Br)cc1)n1c2ccc(Br)cc2c2nc3ccccc3nc21`, the GI50 was > 100 µM (inactive) in [1]; > 100 µM (inactive) in [2]; > 100 µM (inactive) in assay [3]; 52 µM (inactive) in assay [4]; > 100 µM (inactive) in assay [5]; 57.5 µM (inactive) in assay [6]. The GI50 is 20.1 µM (inactive) in assay [17]; > 100 µM (inactive) in assay [7]; > 100 µM (inactive) in [18]; 14.1 µM (inactive) in assay [9]; > 100 µM (inactive) in [10]; 38.3 µM (inactive) in [11]. In addition, the GI50 is > 100 µM (inactive) in [12]; 23.2 µM (inactive) in assay [13]; 50.5 µM (inactive) in assay [14]; > 100 µM (inactive) in assay [15]; 49.3 µM (inactive) in assay [16].

As for `O=C(CSCC(=O)N/N=C/c1cccs1)N/N=C/c1cccs1`, the GI50 in [1] is > 100 µM (inactive); in assay [2], > 100 µM (inactive); in assay [3], 30.6 µM (inactive); in assay [4], > 100 µM (inactive); in assay [19], > 100 µM (inactive); in assay [5], > 100 µM (inactive). Moreover, the GI50 in assay [6] is 93.1 µM (inactive); in assay [17], 74.3 µM (inactive); in [7] it was > 100 µM (inactive); in assay [18], > 100 µM (inactive); in assay [8], > 100 µM (inactive); in assay [9], 51.6 µM (inactive). Also, the GI50 was 54.3 µM (inactive) in assay [10]; > 100 µM (inactive) in assay [11]; > 100 µM (inactive) in assay [12]; > 100 µM (inactive) in [13]; 75.9 µM (inactive) in assay [14]; > 100 µM (inactive) in assay [15]. For the same compound, the GI50 in assay [16] is 56.1 µM (inactive).

For the compound `COc1ccn(CC(=O)c2cc3ccccc3[nH]2)c(=O)n1`, the GI50 in assay [1] was > 100 µM (inactive); in assay [2], > 100 µM (inactive); in [3] it was > 100 µM (inactive); in assay [4], > 100 µM (inactive); in [19] it was 39.2 µM (inactive); in assay [5], > 100 µM (inactive). Moreover, the GI50 in [6], in assay [17], in assay [7], in assay [18], in assay [8] and in [9] was > 100 µM (inactive) in each case. Besides, the GI50 in [10], in assay [11], in [12], in assay [13], in assay [14] and in [15] was > 100 µM (inactive) in each case. In addition, in assay [16], the GI50 was > 100 µM (inactive).

Take `Oc1ccc(-c2csc(N/N=C3\NC/C(=C/c4ccc5c(c4)OCO5)S3)n2)cc1O`: the GI50 in assay [1] is 40.6 µM (inactive); in [2], 47.2 µM (inactive); in [3], 26.4 µM (inactive); in [4], > 100 µM (inactive); in assay [19] it was > 10 µM (inactive); in assay [5], 31 µM (inactive). Further, the GI50 in assay [6] was 10 µM (inactive); in assay [7] it was 11.9 µM (inactive); in assay [8], 6.43 µM (inactive); in [10] it was 26.7 µM (inactive); in assay [12], 33.5 µM (inactive); in assay [13], 22.1 µM (inactive). In addition, the GI50 is 55.8 µM (inactive) in assay [14], 11.2 µM (inactive) in assay [15] and 14.4 µM (inactive) in assay [16].

Regarding `CC12CC(c3ccccc3O1)C(C(=O)Nc1nccs1)C(=O)N2` (stereo not given), the GI50 in assay [1], in [2], in assay [3], in assay [4], in assay [19] and in assay [5] was > 100 µM (inactive) in each case. Further, the GI50 is > 100 µM (inactive) in assay [6]; > 100 µM (inactive) in [17]; 40.5 µM (inactive) in assay [7]; > 100 µM (inactive) in assay [18]; > 100 µM (inactive) in [8]; > 100 µM (inactive) in [9]. The GI50 in [10], in [11], in [13], in assay [14], in [15] and in assay [16] was > 100 µM (inactive) in each case.

`COc1cc(/C=N/n2c(-c3ccccc3)n[nH]c2=O)cc(OC)c1OC`: the GI50 is > 100 µM (inactive) in [1]; 22.4 µM (inactive) in [2]; 2.81 µM (inactive) in assay [3]; 2.56 µM (inactive) in assay [4]; 0.518 µM (active) in assay [19]; 0.826 µM (active) in assay [5]. Besides, the GI50 in assay [6] is 3.87 µM (inactive); in assay [17] it was 4.94 µM (inactive); in assay [7] it was > 28 µM (inactive); in assay [18] it was 0.598 µM (active); in assay [8], 1.3 µM (inactive); in assay [9], 1.76 µM (inactive). The GI50 is 5.77 µM (inactive) in assay [10]; 2.34 µM (inactive) in assay [11]; 7.67 µM (inactive) in assay [12]; 3.93 µM (inactive) in assay [13]; 19.2 µM (inactive) in assay [14]; 6.08 µM (inactive) in assay [15]. Moreover, the GI50 in assay [16] was 6.37 µM (inactive).

As for `CC(=S)N/C=C1/C(=O)C=C(C)OC1=O`, the GI50 in assay [1], in assay [2], in assay [3], in assay [4], in assay [19] and in [5] was > 100 µM (inactive) throughout. The GI50 in [6], in assay [17], in assay [18], in [8], in assay [9] and in assay [10] was > 100 µM (inactive) throughout. Moreover, the GI50 in [11], in assay [12], in [13], in assay [14], in assay [15] and in assay [16] was > 100 µM (inactive) in each case.

As for `CC(=O)O[C@H]1C[C@H](O[C@H]2[C@@H](O)C[C@H](O[C@H]3[C@@H](O)C[C@H](O[C@H]4CC[C@@]5(C)[C@H](CC[C@@H]6[C@@H]5CC[C@]5(C)[C@@H](C7=CC(=O)OC7)CC[C@]65O)C4)O[C@@H]3C)O[C@@H]2C)O[C@H](C)[C@H]1O[C@@H]1O[C@H](CO)[C@@H](O)[C@H](O)[C@H]1O`, the GI50 in assay [1] is 0.0615 µM (active); in [2] it was 0.0342 µM (active); in assay [3], 0.0152 µM (active); in assay [4] it was 0.0395 µM (active); in assay [19], 0.0149 µM (active); in assay [5], < 0.01 µM (active). In addition, the GI50 in assay [6] was 0.0452 µM (active); in [17], 0.0288 µM (active); in [7], 0.136 µM (active); in assay [18] it was 0.0815 µM (active); in [8], 0.013 µM (active); in assay [9], 0.0269 µM (active). The GI50 in assay [10] was < 0.01 µM (active); in assay [11] it was 0.132 µM (active); in assay [12] it was 0.0243 µM (active); in [13] it was 0.032 µM (active); in assay [14], 0.256 µM (active); in [15], 0.0634 µM (active). The GI50 in assay [16] is 0.0658 µM (active).

For the compound `Sc1nn2c(Cc3ccccc3)nnc2s1`, the GI50 in assay [1], in assay [2], in [3], in assay [4], in [19] and in [5] was > 100 µM (inactive) in each case. Also, the GI50 in assay [6], in assay [17], in assay [7], in assay [18], in [8] and in assay [9] was > 100 µM (inactive) in each case. The GI50 in assay [10], in [11], in [12], in assay [13], in assay [14] and in assay [15] was > 100 µM (inactive) in each case. The GI50 in assay [16] is > 100 µM (inactive).

As to `O=c1c(O)c(-c2ccc(O)cc2O)oc2cc(O)cc(O)c12` [MORIN], the GI50 in assay [1], in assay [2], in assay [3], in assay [19], in [5] and in [6] was > 100 µM (inactive) in each case. Moreover, the GI50 in assay [7], in [18], in assay [8], in [9], in assay [10] and in assay [12] was > 100 µM (inactive) each time. Moreover, the GI50 in [13], in assay [14], in [15] and in assay [16] was > 100 µM (inactive) each time.
